The subject of series [1] is Leishmania donovani. The series is described as follows: Antileishmanial activity against Leishmania donovani 9515 amastigote infected in human THP-1 cells assessed as static activity by measuring inhibition of parasite growth incubated for 72 hrs by resazurin dye based assay. The conditions noted are these: Leishmania donovani, 9515, THP-1, 72 h. It is filed as functional, organism-based.

The test system of series [2] is Leishmania major. The series is described as follows: Antileishmanial activity against Leishmania major IR-173 promastigotes assessed as inhibition of parasite growth incubated for 48 hrs by resazurin dye based assay. As to conditions: IR-173, 48 h. It is filed as functional, organism-based. A general note: The colour change of resazurin is a common sign of viable cells or microbes.

The nature of series [3]: Cytotoxicity against HEK293 cells assessed as inhibition of cell growth incubated for 48 hrs by resazurin dye based assay. It is filed as toxicity. The conditions noted are these: human.
For series [4], the system named is Leishmania major. As to the kind of experiment: Leishmanicidal activity against Leishmania major IR-173 amastigote infected in human THP-1 cells incubated for 72 hrs by resazurin dye based analysis. The conditions noted are these: IR-173, THP-1, 72 h. It is filed as functional, organism-based.
Series [5] relates to Leishmania donovani. The series is described as follows: Leishmanicidal activity against Leishmania donovani 9515 amastigote infected in human THP-1 cells incubated for 72 hrs by resazurin dye based analysis. It is filed as functional, organism-based. As to conditions: Leishmania donovani, 9515, THP-1, 72 h.
Series [6] is described as follows: Selectivity index, ratio of IC50 for cytotoxicity against HEK293 cells to IC50 for antileishmanial activity against Leishmania major IR-173 promastigotes. It is filed as toxicity, cell-based. The conditions noted are these: human, read-out: Ratio IC50.
Series [7] concerns Leishmania major. As to the kind of experiment: Antileishmanial activity against Leishmania major IR-173 amastigote infected in human THP-1 cells assessed as static activity by measuring inhibition of parasite growth incubated for 72 hrs by resazurin dye based assay. It is filed as functional, organism-based. As to conditions: IR-173, THP-1, 72 h.
The subject of series [8] is Leishmania donovani. As to the kind of experiment: Antileishmanial activity against Leishmania donovani 9515 promastigotes assessed as inhibition of parasite growth incubated for 48 hrs by resazurin dye based assay. It is filed as functional, organism-based. The conditions noted are these: Leishmania donovani, 9515, 48 h.
A short description of series [9]: Selectivity index, ratio of IC50 for cytotoxicity against HEK293 cells to IC50 for antileishmanial activity against Leishmania donovani 9515 promastigotes. It is filed as toxicity, cell-based. As to conditions: human, read-out: Ratio IC50.

This passage reports IC50 and selectivity ratio results from ChEMBL document CHEMBL5352474, “Synthesis and in vitro antileishmanial activity of alkylene-linked nitrofurantoin-triazole hybrids” (Eur J Med Chem, 2023).

For `O=C1CN(/N=C/c2ccc([N+](=O)[O-])o2)C(=O)N1CCCCCCn1cc(-c2ccc(F)cc2)nn1`, the IC50 (in general, the concentration needed to halve the response being measured) in the series with Leishmania donovani [1] was greater than 10 µM; in the series on Leishmania major [2], 220 nM; in the series on Leishmania major [4], greater than 10 µM; with Leishmania donovani [5] it was greater than 10 µM; in the series with Leishmania major [7], greater than 10 µM; in the series with Leishmania donovani [8] it was greater than 10 µM. Also, the IC50 at 48 h in series [3] came to 8.97 µM. Further, the selectivity ratio in series [6] stood at 40.

Regarding `CCCCCc1ccc(-c2cn(CCCCCCN3C(=O)CN(/N=C/c4ccc([N+](=O)[O-])o4)C3=O)nn2)cc1`, the 50% inhibitory concentration (IC50) with Leishmania donovani [1] is greater than 10 µM; with Leishmania major [2], 2190 nM; in the series on Leishmania major [4], greater than 10 µM; in the series on Leishmania donovani [5] it was greater than 10 µM; in the series with Leishmania major [7], greater than 10 µM; with Leishmania donovani [8], 0.05 µM.

On to `COc1ccc(-c2cn(CCCCCN3C(=O)CN(/N=C/c4ccc([N+](=O)[O-])o4)C3=O)nn2)cc1`, for which the IC50 is greater than 10 µM in the series with Leishmania donovani [1]; 500 nM in the series with Leishmania major [2]; greater than 10 µM with Leishmania major [4]; greater than 10 µM in the series on Leishmania donovani [5]; greater than 10 µM in the series with Leishmania major [7]; greater than 10 µM with Leishmania donovani [8]. Also, in [3], the IC50 at 48 h came to 22.7 µM. The selectivity ratio in series [6] is 45.

As for `O=C1CN(/N=C/c2ccc([N+](=O)[O-])o2)C(=O)N1CCCCCn1cc(-c2cc(C(F)(F)F)cc(C(F)(F)F)c2)nn1`, the IC50 in the series on Leishmania donovani [1] is greater than 10 µM; with Leishmania major [2], greater than 10000 nM; in the series on Leishmania major [4], greater than 10 µM; in the series with Leishmania donovani [5], greater than 10 µM; with Leishmania major [7], greater than 10 µM; in the series with Leishmania donovani [8], greater than 10 µM. For the same compound, in series [3], the IC50 at 48 h was 17.7 µM.

`CCCCCCc1cn(CCCCCN2C(=O)CN(/N=C/c3ccc([N+](=O)[O-])o3)C2=O)nn1`: the half-inhibitory concentration (IC50) in the series on Leishmania donovani [1] was greater than 10 µM; in the series on Leishmania major [2] it was 1500 nM; with Leishmania major [4], greater than 10 µM; with Leishmania donovani [5], greater than 10 µM; in the series on Leishmania major [7], greater than 10 µM; in the series on Leishmania donovani [8], 0.61 µM. In series [3], the IC50 at 48 h is 65.9 µM. For the same compound, the selectivity ratio worked out at 44 in [6] and 108 in series [9].

For `O=C1CN(/N=C/c2ccc([N+](=O)[O-])o2)C(=O)N1CCCn1cc(-c2ccc(F)cc2)nn1`, the half-inhibitory concentration (IC50) with Leishmania donovani [1] was greater than 10 µM; in the series on Leishmania major [2], 740 nM; with Leishmania major [4], greater than 10 µM; with Leishmania donovani [5], greater than 10 µM; in the series on Leishmania major [7] it was greater than 10 µM; with Leishmania donovani [8] it was greater than 10 µM. Besides, the concentration for half-maximal inhibition (IC50) at 48 h in [3] was greater than 100 µM. In series [6], the selectivity ratio is greater than 135.

As for `O=C1CN(/N=C/c2ccc([N+](=O)[O-])o2)C(=O)N1CCCn1cc(-c2cc(C(F)(F)F)cc(C(F)(F)F)c2)nn1`, the IC50 in the series on Leishmania donovani [1] was greater than 10 µM; in the series with Leishmania major [2], 670 nM; in the series on Leishmania major [4], greater than 10 µM; in the series with Leishmania donovani [5], greater than 10 µM; in the series with Leishmania major [7], greater than 10 µM; in the series with Leishmania donovani [8], 1.2 µM. In addition, in series [3], the concentration for half-maximal inhibition (IC50) at 48 h came to 30.6 µM. The selectivity ratio in series [6] was determined as 46; in series [9], 26.

Turning to `Cc1ccc(-c2cn(CCCCCN3C(=O)CN(/N=C/c4ccc([N+](=O)[O-])o4)C3=O)nn2)cc1`, the IC50 is greater than 10 µM in the series on Leishmania donovani [1]; 1860 nM in the series with Leishmania major [2]; greater than 10 µM in the series with Leishmania major [4]; greater than 10 µM with Leishmania donovani [5]; greater than 10 µM with Leishmania major [7]; greater than 10 µM with Leishmania donovani [8]. The 50% inhibitory concentration (IC50) at 48 h in [3] is 13.9 µM. Besides, in [6], the selectivity ratio is 8.

Regarding `CCCCCCCCc1cn(CCCCCN2C(=O)CN(/N=C/c3ccc([N+](=O)[O-])o3)C2=O)nn1`, the half-inhibitory concentration (IC50) was greater than 10 µM in the series on Leishmania donovani [1]; greater than 10000 nM in the series on Leishmania major [2]; greater than 10 µM in the series on Leishmania major [4]; greater than 10 µM in the series with Leishmania donovani [5]; greater than 10 µM in the series with Leishmania major [7]; greater than 10 µM in the series with Leishmania donovani [8]. Also, the IC50 at 48 h in series [3] stood at 28.6 µM.

Consider `CCCCCc1ccc(-c2cn(CCCCCN3C(=O)CN(/N=C/c4ccc([N+](=O)[O-])o4)C3=O)nn2)cc1`, for which the IC50 in the series with Leishmania donovani [1] is greater than 10 µM; in the series on Leishmania major [2], greater than 10000 nM; in the series on Leishmania major [4] it was greater than 10 µM; in the series with Leishmania donovani [5] it was greater than 10 µM; with Leishmania major [7], greater than 10 µM; with Leishmania donovani [8] it was greater than 10 µM. The IC50 at 48 h in [3] stood at 9.73 µM.

For `O=C1CN(/N=C/c2ccc([N+](=O)[O-])o2)C(=O)N1CCCCCn1cc(-c2ccc(F)cc2)nn1`, the 50% inhibitory concentration (IC50) was greater than 10 µM with Leishmania donovani [1]; 980 nM in the series with Leishmania major [2]; greater than 10 µM in the series with Leishmania major [4]; greater than 10 µM with Leishmania donovani [5]; greater than 10 µM in the series with Leishmania major [7]; greater than 10 µM in the series with Leishmania donovani [8]. The half-inhibitory concentration (IC50) at 48 h in [3] was 37.2 µM. Further, in [6], the selectivity ratio came to 40.

Consider `O=C1CN(/N=C/c2ccc([N+](=O)[O-])o2)C(=O)N1CCCCCn1cc(CSc2ccccc2)nn1`, for which the IC50 is greater than 10 µM in the series on Leishmania donovani [1]; 1700 nM in the series with Leishmania major [2]; greater than 10 µM in the series on Leishmania major [4]; greater than 10 µM with Leishmania donovani [5]; greater than 10 µM in the series with Leishmania major [7]; 0.01 µM in the series with Leishmania donovani [8]. Moreover, the concentration for half-maximal inhibition (IC50) at 48 h in series [3] is 87.9 µM. Moreover, the selectivity ratio stood at 52 in series [6] and 8790 in [9].

Regarding `O=C1CN(/N=C/c2ccc([N+](=O)[O-])o2)C(=O)N1CCCCCCn1cc(-c2cc(C(F)(F)F)cc(C(F)(F)F)c2)nn1`, the IC50 in the series on Leishmania donovani [1] is greater than 10 µM; in the series on Leishmania major [2] it was 800 nM; in the series on Leishmania major [4] it was greater than 10 µM; with Leishmania donovani [5] it was greater than 10 µM; with Leishmania major [7], greater than 10 µM; in the series on Leishmania donovani [8] it was 5.35 µM.

As to `CCCCCc1cn(CCCCCCN2C(=O)CN(/N=C/c3ccc([N+](=O)[O-])o3)C2=O)nn1`, the IC50 in the series with Leishmania donovani [1] is greater than 10 µM; in the series with Leishmania major [2], 270 nM; in the series with Leishmania major [4] it was greater than 10 µM; in the series on Leishmania donovani [5] it was greater than 10 µM; with Leishmania major [7], greater than 10 µM; with Leishmania donovani [8], greater than 10 µM. Moreover, the 50% inhibitory concentration (IC50) at 48 h in series [3] worked out at 15.5 µM. For the same compound, in series [6], the selectivity ratio amounted to 57.

On to `CCCCc1cn(CCCCCCN2C(=O)CN(/N=C/c3ccc([N+](=O)[O-])o3)C2=O)nn1`, for which the half-maximal inhibitory concentration (IC50) was greater than 10 µM in the series with Leishmania donovani [1]; 1190 nM with Leishmania major [2]; greater than 10 µM in the series on Leishmania major [4]; greater than 10 µM in the series with Leishmania donovani [5]; greater than 10 µM in the series on Leishmania major [7]; greater than 10 µM in the series on Leishmania donovani [8]. Further, the IC50 at 48 h in [3] came out at 44.5 µM. Moreover, the selectivity ratio in [6] was 37.

Consider `CCCCCCCCc1cn(CCCN2C(=O)CN(/N=C/c3ccc([N+](=O)[O-])o3)C2=O)nn1`, for which the IC50 in the series on Leishmania donovani [1] was greater than 10 µM; with Leishmania major [2], 730 nM; in the series with Leishmania major [4] it was greater than 10 µM; in the series with Leishmania donovani [5], greater than 10 µM; in the series on Leishmania major [7], greater than 10 µM; in the series with Leishmania donovani [8], greater than 10 µM. Moreover, the half-maximal inhibitory concentration (IC50) at 48 h in series [3] came out at 11.5 µM. Besides, in series [6], the selectivity ratio came out at 16.

As for `CCCCCc1ccc(-c2cn(CCCN3C(=O)CN(/N=C/c4ccc([N+](=O)[O-])o4)C3=O)nn2)cc1`, the IC50 is greater than 10 µM in the series on Leishmania donovani [1]; greater than 10000 nM with Leishmania major [2]; greater than 10 µM in the series on Leishmania major [4]; greater than 10 µM in the series on Leishmania donovani [5]; greater than 10 µM in the series with Leishmania major [7]; greater than 10 µM in the series on Leishmania donovani [8]. In addition, in [3], the IC50 at 48 h is 79.8 µM.

Take `C[C@@H]1[C@H](O)[C@@H](C)/C=C/C=C/C=C/C=C/C=C/C=C/C=C/[C@H](O[C@@H]2O[C@H](C)[C@@H](O)[C@H](N)[C@@H]2O)C[C@@H]2O[C@](O)(C[C@@H](O)C[C@@H](O)[C@H](O)CC[C@@H](O)C[C@@H](O)CC(=O)O[C@H]1C)C[C@H](O)[C@H]2C(=O)O` [AMPHOTERICIN B]: in the series with Leishmania major [7], the IC50 turned out to be 0.03 µM.

In the case of `CC[C@H]1CN2CCc3cc(OC)c(OC)cc3[C@@H]2C[C@@H]1C[C@H]1NCCc2cc(OC)c(OC)cc21` [EMETINE], the IC50 at 48 h in series [3] is 0.01 µM.
